Values quoted from earlier work, collected in US7635572B2, “Methods for conducting assays for enzyme activity on protein microarrays” (Life Technologies Corporation, priority 2004, dated 2009).

System: 39 kinases (Table 4)
Details: known general specificities of the inhibitors, Table 3; cited from earlier work

Question: With `Oc1ccc(-c2nc(-c3ccncc3)c(-c3ccc(F)cc3)[nH]2)cc1` [SB 202190] as the compound, how does the “General Specificity (known)” value read?
Answer: The value was “serine/threonine”.
